# Values quoted from earlier work as cited in patent publication US20250241996A1, “COMBINATORIAL, AND ROTATIONAL COMBINATORIAL THERAPIES” (Starrock Pharma Inc., priority 2022, published 2025).
# Read-outs that look alike come from different tables or passages of the source.
# B1: adiponectin: 244-amino-acid-long polypeptide (SEQ ID NO:2) (protein, listed as Homo sapiens)
# chain: MLLLGAVLLLLALPGHDQETTTQGPGVLLPLPKGACTGWMAGIPGHPGHNGAPGRDGRDGTPGEKGEKGDPGLIGPKGDIGETGVPGAEGPRGFPGIQGRKGEPGEGAYVYRSAFSVGLETYVTIPNMPIRFTKIFYNQQNHYDGSTGKFHCNIPGLYYFAYHITVYMKDVKVSLFKKDKAMLFTYDQYQENNVDQASGSVLLHLEVGDQVWLQVYGEGERNGLYADNDNDSTFTGFLLYHDTN
# modifications: Adiponectin
# B2: PYY: 36-amino acid peptide released from cells in the ileum and colon (peptide, listed as Homo sapiens)
# chain: MVFVRRPWPALTTVLLALLVCLGALVDAYPIKPEAPREDASPEELNRYYASLRHYLNLVTRQRYGKRDGPDTLLSKTFFPDGEDRPVRSRSEGPDLW
# modifications: Peptide tyrosine-tyrosine (PYY)
# notes: 36-amino acid peptide released from cells in the ileum and colon
# Legend:
# [1] = injections, 4-week study; saline 0.5±0.5 kg; cited from earlier work
# [2] = Model: in vitro; cited from earlier work
# [3] = cited from earlier work; for average weight reduction (efficacy estimate): placebo 2.4%; for treatment discontinuation rate due to adverse events: placebo 2.6%; for overall treatment discontinuation rate: placebo 26.4%; for people achieving at least 5% body weight reductions: placebo 28%; for Body weight change from baseline / Estimated mean weight change / Patients with weight loss of >5% / Patients with weight loss of >20%: week 72
# [4] = cited from earlier work
# [5] = intravenous; 18 obese patients; cited from earlier work
# [6] = oral administration; mice; cited from earlier work
# [7] = cited from earlier work; remark: listed apart in the source
# [8] = two hours after infusion, P<0.001, cited from earlier work
molecule,measurement,setting,value
oxyntomodulin: 37-amino acid peptide hormone (SEQ ID NO:4) (HSQGTFTSDYSKYLDSRRAQDFVQWLMNTKRNRNNIA; Oxyntomodulin (OXY/OXM 53-89); listed as Homo sapiens),average weight loss,[1],2.3 ± 0.4 kg
O=C1CCC(N2C(=O)c3ccccc3C2=O)C(=O)N1 (stereo not drawn) [Thalidomide],Results,[2],decrease TNF-α from Aβ42-
tirzepatide,average weight reduction (efficacy estimate),[3]; 5 mg,16.0%
same,treatment discontinuation rate due to adverse events,[3]; 5 mg,4.3%
same,overall treatment discontinuation rate,[3]; 5 mg,14.3%
same,people achieving at least 5% body weight reductions,[3]; 5 mg,89%
same,average weight reduction (efficacy estimate),[3]; 10 mg,21.4%
same,treatment discontinuation rate due to adverse events,[3]; 10 mg,7.1%
same,overall treatment discontinuation rate,[3]; 10 mg,16.4%
same,people achieving at least 5% body weight reductions,[3]; 10 mg,96%
same,average weight reduction (efficacy estimate),[3]; 15 mg,22.5%
same,treatment discontinuation rate due to adverse events,[3]; 15 mg,6.2%
same,overall treatment discontinuation rate,[3]; 15 mg,15.1%
same,people achieving at least 5% body weight reductions,[3]; 15 mg,96%
same,body weight lost (up to),"[3]; 5, 10, 15 mg, 72 weeks",≤ 52 lb.
same,Body weight change from baseline,[3]; SC 5 mg,-16 kg
same,Estimated mean weight change,[3]; SC 5 mg,−15%
same,Patients with weight loss of >5%,[3]; SC 5 mg,85%
same,Patients with weight loss of >20%,[3]; SC 5 mg,30%
same,Body weight change from baseline,[3]; SC 10 mg,-22 kg
same,Estimated mean weight change,[3]; SC 10 mg,−19.5%
same,Patients with weight loss of >5%,[3]; SC 10 mg,89%
same,Patients with weight loss of >20%,[3]; SC 10 mg,50%
same,Body weight change from baseline,[3]; SC 15 mg,-24 kg
same,Estimated mean weight change,[3]; SC 15 mg,−20.9%
same,Patients with weight loss of >5%,[3]; SC 15 mg,91%
same,Patients with weight loss of >20%,[3]; SC 15 mg,57%
same,trial participants experiencing abdominal pain,[3]; in vivo,5%
same,trial participants experiencing constipation,[3]; in vivo,7%
same,trial participants experiencing diarrhea,[3]; in vivo,17%
same,trial participants experiencing nausea,[3]; in vivo,18%
same,trial participants experiencing vomiting,[3]; in vivo,9%
same,long-term blood sugar control (A1C) and weight loss compared to semaglutide,"[4]; human, in vivo","significantly better long-term blood sugar control (i.e., A1C) and weight loss compared to semaglutide"
same,body weight reduction,"[4]; phase III, type 2 diabetes, semaglutide comparator at 1 mg",> 15%
enterostatin,"feelings of hunger, satiety, or food preference",[5],"did not impact feelings of hunger, satiety, or food preference"
same,serum cholesterol,[6],reduce serum cholesterol after oral administration in mice
B1,half-life,[7],2.5 h
B2,decrease of caloric intake during a buffet lunch,[8]; lean subjects,31%
same,decrease of caloric intake during a buffet lunch,[8]; obese subjects,30%
